# Laboratory results taken from patent US7700717B2, “Photo-active backbone cyclized somatostatin analogs for photodynamic therapy and imaging” (DeveloGen Israel Ltd., priority 2002, dated 2010).
# Key:
# [1] = test system: subcutaneously implanted H69 human lung cancer; assay: Ex vivo biodistribution by fiber-optic spectrofluorimetry (FOS) in tissues of mice bearing H69 tumors; conditions: for Fluorescence intensity (a.u.), Kidney / Fluorescence intensity (a.u.), Liver / Fluorescence intensity (a.u.), Lung / Fluorescence intensity (a.u.), Pancreas / Fluorescence intensity (a.u.), Skin / Fluorescence intensity (a.u.), Spleen / Fluorescence intensity (a.u.), Tumor: ex vivo, 24 hours after i.v. administration, FOS
# Text: An argon ion laser (Melles Griot, 43 series) was coupled to a spectrofluorophotometer (Shimadzu, model RF-5301PC) using a bifurcated fiber bundle (Oriel, Stratford, Conn., model 77533). Laser light (488 nm) was passed via one leg of the fiber bundle, the common end tip of the bundle was fixed at a distance of 1 mm from a tissue sample, while the end tip of the second leg was mounted in front of the entrance slit of the spectrofluorophotometer. Laser irradiation from the fiber was set to 5 mW, as measured with a laser power meter (Laserstar, Ophir, Israel). An average of three recordings was used for each data point.
# For control, one mouse was injected with fluorescein.
# Fluorescence measurements were performed: • 1. […] Ex vivo 24 hours post injection using FOS. • 3.
# [2] = test system: subcutaneously implanted H69 human lung cancer; conditions: mouse, iv
# Description: Balb/c nude mice xenografts inoculated subcutaneously with the human small cell lung cancer cell line, H69.
# Hundred μl of each agent (1 mM stock) were dissolved in 0.5 ml of saline and injected intravenously. For control, one mouse was injected with fluorescein.
# In vivo during 24 hours after agent administrations using point (˜1 mm^2 area) measurements by fiber-optic spectroscopic system (FOS). • 2. Ex vivo 24 hours post injection using FOS. • 3.
# hSST-R2 = target: T1, hSST-R2 (Homo sapiens, UniProt P30874); assay: Inhibition of 125I-Tyr11-SRIF (SRIF-14) binding to membranes of CHO cells expressing cloned human SST-R2; conditions: Table 2; affinity for hSST-R2, cloned human receptor in CHO cells
# T1 construct: expressed in transfected cells
# Description: The SST analogs were tested for their potency in inhibition of the binding of ^125I-Tyr^11-SRIF (based on the method described by Raynor et. al., Molecular Pharmacology 43: 838, 1993) to membrane preparations expressing transmembrane SST receptors (SST-R1, 2, 3, 4 or 5). The receptor preparations used for these tests were either from the cloned human receptors selectively and stably expressed in Chinese Hamster Ovary (CHO) cells or from cell lines naturally expressing the SST-Rs. Typically, cell membranes were homogenized in Tris buffer in the presence of protease inhibitors and incubated for 30-40 minutes with ^125I-Tyr^11-SRIF with different concentrations of the tested sample. The binding reactions were filtered, the filters were washed and the bound radioactivity was counted in […] after addition of scintillation solution. Non specific binding was defined as the radioactivity remaining bound in the presence of 1 μM unlabeled SRIF-14.
# The receptor membrane preparations used for these tests were from the cloned human receptors selectively and stably expressed in CHO cells and the radiolabelled analog used was (3-[^125]tyrosyl^11)SRIF-14. Table 2 above describes the results of the binding assays of selected analogs to the human cloned SST-R2.
# The compounds were tested at a concentration of 10 nM, for SRIF-14 displacement on hSST-R2 expressed cells.
# hSST-R4 = hSST-R4 (Homo sapiens, UniProt P31391); conditions: cited from earlier work
# SST-R2 and SST-R5 = conditions: cited from earlier work
# T1 sequence (P30874 whole entry): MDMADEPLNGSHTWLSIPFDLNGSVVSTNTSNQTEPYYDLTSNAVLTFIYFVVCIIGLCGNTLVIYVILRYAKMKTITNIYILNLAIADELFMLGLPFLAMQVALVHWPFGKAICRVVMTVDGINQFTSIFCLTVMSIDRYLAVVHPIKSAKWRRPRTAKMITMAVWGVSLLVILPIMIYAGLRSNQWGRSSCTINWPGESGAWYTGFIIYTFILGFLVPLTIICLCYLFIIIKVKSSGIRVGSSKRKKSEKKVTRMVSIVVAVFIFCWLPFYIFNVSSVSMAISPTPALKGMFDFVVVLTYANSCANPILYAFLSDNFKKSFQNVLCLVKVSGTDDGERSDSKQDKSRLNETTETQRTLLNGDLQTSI
# Chain of hSST-R4 (P31391 whole entry): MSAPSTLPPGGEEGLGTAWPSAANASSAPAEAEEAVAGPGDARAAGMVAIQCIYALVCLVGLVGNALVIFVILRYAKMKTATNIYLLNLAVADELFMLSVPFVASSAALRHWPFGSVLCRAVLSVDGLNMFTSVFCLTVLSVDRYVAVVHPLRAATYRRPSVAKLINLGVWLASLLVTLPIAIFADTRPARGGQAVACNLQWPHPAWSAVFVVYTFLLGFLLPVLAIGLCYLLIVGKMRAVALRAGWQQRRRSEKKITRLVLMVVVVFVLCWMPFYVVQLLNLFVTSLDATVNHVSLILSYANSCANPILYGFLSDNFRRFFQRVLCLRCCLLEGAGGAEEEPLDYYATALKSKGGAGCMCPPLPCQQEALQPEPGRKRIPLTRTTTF
Compound,"Fluorescence intensity (a.u.), Kidney [1] [a.u.]","Fluorescence intensity (a.u.), Liver [1] [a.u.]","Fluorescence intensity (a.u.), Lung [1] [a.u.]","Fluorescence intensity (a.u.), Pancreas [1] [a.u.]","Fluorescence intensity (a.u.), Skin [1] [a.u.]","Fluorescence intensity (a.u.), Spleen [1] [a.u.]","Fluorescence intensity (a.u.), Tumor [1] [a.u.]",fluorescence in normal organs in ex vivo spectral images [2],tumor fluorescence in ex vivo spectral images [2],"tissue accumulation / specificity to the tumor in words ([1]; mouse, in vivo)",IC50 (hSST-R2) [nM],affinity to hSST-R4 (hSST-R4),SST receptor subtype selectivity (SST-R2 and SST-R5)
"C[C@@H](O)[C@@H]1NC(=O)[C@H](CCCCN)NC(=O)[C@@H](Cc2c[nH]c3ccccc23)NC(=O)[C@H](Cc2c[nH]c3ccccc23)NC(=O)[C@H](Cc2ccccc2)NC(=O)CN(C(=O)CCCNC(=O)c2ccc3c(c2)C(=O)OC32c3ccc(O)cc3Oc3cc(O)ccc32)CCSSCCN(CC(N)=O)C(=O)[C@H](Cc2ccccc2)NC1=O [Compound 48, 5- and 6-carboxyfluorescein-GABA-GlyS2*-Phe-Trp-DTrp-Lys-Thr-Phe-GlyS2*-NH2]",15 ± 6,10 ± 5,25 ± 8,16 ± 5,90 ± 20,7 ± 2,50 ± 20,,,,,,
"C[C@@H](O)[C@@H]1NC(=O)[C@H](CCCCN)NC(=O)[C@@H](Cc2c[nH]c3ccccc23)NC(=O)[C@H](Cc2c[nH]c3ccccc23)NC(=O)[C@H](Cc2ccccc2)NC(=O)CN(C(=O)[C@@H](Cc2ccccc2)NC(=O)CCNC(=S)Nc2ccc3c(c2)C(=O)OC32c3ccc(O)cc3Oc3cc(O)ccc32)CCSSCCN(CC(N)=O)C(=O)[C@H](Cc2ccccc2)NC1=O [Compound 62, 5-(aminothionyl)fluorescein-βAla-DPhe-GlyS2*-Phe-Trp-DTrp-Lys-Thr-Phe-GlyS2*-NH2]",32 ± 5,17 ± 3,37 ± 6,,120 ± 18,4 ± 1,106 ± 16,no (lungs and kidney) or little (dermis) fluorescence,high and selective fluorescence,,,,
"C[C@@H](O)[C@@H]1NC(=O)[C@H](CCCCN)NC(=O)[C@@H](Cc2c[nH]c3ccccc23)NC(=O)[C@H](Cc2c[nH]c3ccccc23)NC(=O)[C@H](Cc2ccccc2)NC(=O)CN(C(=O)[C@@H](Cc2ccccc2)NC(=O)CCNC(=O)c2ccc3c(c2)C(=O)OC32c3ccc(O)cc3Oc3cc(O)ccc32)CCSSCCN(CC(N)=O)C(=O)[C@H](Cc2ccccc2)NC1=O [Compound 64, 5- and 6-carboxyfluorescein-βAla-DPhe-GlyS2*-Phe-Trp-DTrp-Lys-Thr-Phe-GlyS2*-NH2]",20 ± 3,12 ± 2,40 ± 6,,120 ± 18,4 ± 1,110 ± 17,,,,,,
"C[C@@H](O)[C@@H]1NC(=O)[C@H](CCCCN)NC(=O)[C@@H](Cc2c[nH]c3ccccc23)NC(=O)[C@H](Cc2c[nH]c3ccccc23)NC(=O)[C@H](Cc2ccccc2)NC(=O)CN(C(=O)[C@@H](Cc2ccccc2)NC(=O)CCCCNC(=S)Nc2ccc3c(c2)C(=O)OC32c3ccc(O)cc3Oc3cc(O)ccc32)CCSSCCN(CC(N)=O)C(=O)[C@H](Cc2ccccc2)NC1=O [Compound 70, 5-(aminothionyl)fluorescein-aminopentanoyl-DPhe-GlyS2*-Phe-Trp-DTrp-Lys-Thr-Phe-GlyS2*-NH2]",18 ± 3,5 ± 1,27 ± 4,10 ± 2,116 ± 17,2 ± 0.3,122 ± 18,,,,,,
"C[C@@H](O)[C@@H]1NC(=O)[C@H](CCCCN)NC(=O)[C@@H](Cc2c[nH]c3ccccc23)NC(=O)[C@H](Cc2c[nH]c3ccccc23)NC(=O)[C@H](Cc2ccccc2)NC(=O)[C@@H](NC(=O)[C@@H](Cc2ccccc2)NC(=O)CCCNC(=S)Nc2ccc3c(c2)C(=O)OC32c3ccc(O)cc3Oc3cc(O)ccc32)CSSCCN(CC(N)=O)C(=O)[C@H](Cc2ccccc2)NC1=O [Compound 86, 5-(aminothionyl)fluorescein-GABA-DPhe-Cys*-Phe-Trp-DTrp-Lys-Thr-Phe-GlyS2*-NH2]",23 ± 5,13 ± 3,70 ± 14,22 ± 6,65 ± 13,7 ± 1.4,626 ± 55,no fluorescence in normal organs,high and selective tumor fluorescence,particularly high specificity to the tumor,1.7,,
GABA*-Phe-Trp-DTrp-Lys-Thr-Phe-GlyC3*-NH2 (XFWWKTFG; not fully specified; backbone cyclized; GABA; C-terminal amide) [PTR 3173],,,,,,,,,,,,moderate affinity,selective for SST-R2 and SST-R5
